Test results as given in the supplement of paper PMC11061612.

How the values were obtained:
NB69 (Neuroblastoma) = test: Bliss excess, mean over the matrix (fraction); higher = more synergy
Summary of the method: (§1)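 Bliss excess equals the observed combination effect minus the expected value EA + EB − EA·EB, where EA and EB are the effects of each agent alone. Combination Emax is the second-highest inhibition within the matrix. Inhibition was scaled from CellTiter-Glo 2.0 luminescence, with 0 set by vehicle wells and 1 by blank wells, after 72 hours of two-drug dosing of cells plated in 1536-well plates.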

TK10 (Kidney Carcinoma) [1] = test: as above
Summary of the method: as §1

[2] = tested on: RF-48 (B-Cell Non-Hodgkin's Lymphoma); test: as above
Summary of the method: as §1

[3] = tested on: BT-549 (Breast Carcinoma); test: as above
Summary of the method: as §1

[4] = tested on: KARPAS-299 (T-Cell Non-Hodgkin's Lymphoma); test: as above
Summary of the method: as §1

[5] = tested on: MLMA (Other Blood Carcinomas); test: combination Emax (second highest fraction inhibited in the dose matrix, 72 h); higher = more inhibition; extreme values may be limits of the assay
Summary of the method: as §1

[6] = tested on: Hs-766T (Pancreatic Carcinoma); test: as above
Summary of the method: as §1

[7] = tested on: SW13 (Other Solid Carcinomas); test: as above
Summary of the method: as §1

[8] = tested on: NCI-H358 (Lung Adenocarcinoma); test: as above
Summary of the method: as §1

[9] = tested on: AMO-1 (Plasma Cell Myeloma); test: as above
Summary of the method: as §1

[10] = tested on: LU-65 (Non-Small Cell Lung Carcinoma); test: as above
Summary of the method: as §1

D-263MG (Glioblastoma) = test: as above
Summary of the method: as §1

[11] = tested on: KYSE-450 (Esophageal Squamous Cell Carcinoma); test: as above
Summary of the method: as §1

TK10 (Kidney Carcinoma) [12] = test: as above
Summary of the method: as §1

[13] = tested on: RF-48 (B-Cell Non-Hodgkin's Lymphoma); test: as above
Summary of the method: as §1

[14] = tested on: MIA-PaCa-2 (Pancreatic Carcinoma); test: as above
Summary of the method: as §1

[15] = tested on: BT-549 (Breast Carcinoma); test: as above
Summary of the method: as §1

EW-24 (Ewing's Sarcoma) = test: as above
Summary of the method: as §1

[16] = tested on: KARPAS-299 (T-Cell Non-Hodgkin's Lymphoma); test: as above
Summary of the method: as §1

[17] = tested on: EFM-19 (Breast Carcinoma); test: as above
Summary of the method: as §1

| SMILES | Bliss excess (NB69 (Neuroblastoma)) | Bliss excess (TK10 (Kidney Carcinoma) [1]) | Bliss excess [2] | Bliss excess [3] | Bliss excess [4] | combination Emax [5] | combination Emax [6] | combination Emax [7] | combination Emax [8] | combination Emax [9] | combination Emax [10] | combination Emax (D-263MG (Glioblastoma)) | combination Emax [11] | combination Emax (TK10 (Kidney Carcinoma) [12]) | combination Emax [13] | combination Emax [14] | combination Emax [15] | combination Emax (EW-24 (Ewing's Sarcoma)) | combination Emax [16] | combination Emax [17] |
| --- | --- | --- | --- | --- | --- | --- | --- | --- | --- | --- | --- | --- | --- | --- | --- | --- | --- | --- | --- | --- |
| CN(CCO)CC[C@H](CSc1ccccc1)Nc1ccc(S(=O)(=O)NC(=O)c2ccc(N3CCC([C@@H](O)c4ccccc4-c4ccc(Cl)cc4)CC3)cc2)cc1S(=O)(=O)C(F)(F)F [AZD4320] + C1CN(CCC1(C(=O)N[C@@H](CCO)C2=CC=C(C=C2)Cl)N)C3=NC=NC4=C3C=CN4 [Capivasertib] (first compound max 1 µM, 7x7, partner max 3 µM) | -0.0554 | -0.0676 | -0.0097 | -0.0094 | -0.0024 | 0.384 | 0.204 | 0.138 | 0.273 | 0.317 | 0.612 | 0.0907 | 0.199 | 0.39 | 0.817 | 0.133 | 0.294 | 0.869 | 0.0749 | 0.87 |
| CN(CCO)CC[C@H](CSc1ccccc1)Nc1ccc(S(=O)(=O)NC(=O)c2ccc(N3CCC([C@@H](O)c4ccccc4-c4ccc(Cl)cc4)CC3)cc2)cc1S(=O)(=O)C(F)(F)F [AZD4320] + C=CCn1c(=O)c2cnc(Nc3ccc(N4CCN(C)CC4)cc3)nc2n1-c1cccc(C(C)(C)O)n1 [AZD1775] (first compound max 1 µM, partner max 1 µM) | 0.0032 | 0.0515 | 0.0896 | 0.0109 | 0.0477 | 0.994 | 0.398 | 0.167 | 0.498 | 0.732 | 0.763 | 0.381 | 0.64 | 0.571 | 0.885 | 0.6 | 0.751 | 0.913 | 0.938 | 0.716 |
| CN(CCO)CC[C@H](CSc1ccccc1)Nc1ccc(S(=O)(=O)NC(=O)c2ccc(N3CCC([C@@H](O)c4ccccc4-c4ccc(Cl)cc4)CC3)cc2)cc1S(=O)(=O)C(F)(F)F [AZD4320] + CC(=O)O[C@H]1C(=O)[C@@]2(C)[C@H]([C@H](OC(=O)c3ccccc3)[C@]3(O)C[C@H](OC(=O)[C@H](O)[C@@H](NC(=O)c4ccccc4)c4ccccc4)C(C)=C1C3(C)C)[C@]1(OC(C)=O)CO[C@@H]1C[C@@H]2O [Paclitaxel] (first compound max 1 µM, 7x7, partner max 3 µM) | 0.0148 | 0.0195 | -0.0029 | 0.0578 | -0.079 | – | 0.436 | 1 | 0.916 | 1 | 0.951 | 0.95 | 0.875 | 0.821 | 0.989 | 0.898 | 0.853 | 0.968 | 0.837 | 1 |
| CN(CCO)CC[C@H](CSc1ccccc1)Nc1ccc(S(=O)(=O)NC(=O)c2ccc(N3CCC([C@@H](O)c4ccccc4-c4ccc(Cl)cc4)CC3)cc2)cc1S(=O)(=O)C(F)(F)F [AZD4320] + CCN(CCO)CCCOc1ccc2c(Nc3cc(CC(=O)Nc4cccc(F)c4)[nH]n3)ncnc2c1 [AZD2811] (first compound max 1 µM, 7x7, partner max 1 µM) | -0.0077 | -0.0199 | 0.0643 | 0.0218 | 0.0104 | 0.228 | 0.171 | 0.378 | 0.269 | 0.291 | 0.432 | 0.653 | 0.153 | 0.439 | 0.881 | 0.512 | 0.432 | 0.865 | 0.191 | 0.932 |
| CN(CCO)CC[C@H](CSc1ccccc1)Nc1ccc(S(=O)(=O)NC(=O)c2ccc(N3CCC([C@@H](O)c4ccccc4-c4ccc(Cl)cc4)CC3)cc2)cc1S(=O)(=O)C(F)(F)F [AZD4320] + C[C@@H]1COCCN1C2=NC(=NC(=C2)C3(CC3)[S@](=N)(=O)C)C4=C5C=CNC5=NC=C4 [AZD6738] (first compound max 1 µM, 7x7, partner max 10 µM) | -0.0533 | -0.0797 | 0.0017 | -0.0239 | -0.0153 | 0.83 | 0.6 | 0.405 | 0.705 | 0.826 | 0.781 | 0.758 | 0.547 | 0.866 | 0.917 | 0.632 | 0.552 | 0.954 | 0.955 | 0.716 |
| CN(CCO)CC[C@H](CSc1ccccc1)Nc1ccc(S(=O)(=O)NC(=O)c2ccc(N3CCC([C@@H](O)c4ccccc4-c4ccc(Cl)cc4)CC3)cc2)cc1S(=O)(=O)C(F)(F)F [AZD4320] + C[C@@H](Nc1cc(F)cc(F)c1)c1cc(C(=O)N(C)C)cc2c(=O)cc(N3CCOCC3)oc12 [AZD8186] (first compound max 1 µM, 7x7, partner max 3 µM) | -0.0381 | -0.032 | 0.0072 | -0.0156 | 0.044 | 0.701 | 0.469 | 0.592 | 0.394 | 0.244 | 0.483 | 0.38 | 0.33 | 0.54 | 0.959 | 0.444 | 0.456 | 0.921 | 0.247 | 0.82 |
| CN(CCO)CC[C@H](CSc1ccccc1)Nc1ccc(S(=O)(=O)NC(=O)c2ccc(N3CCC([C@@H](O)c4ccccc4-c4ccc(Cl)cc4)CC3)cc2)cc1S(=O)(=O)C(F)(F)F [AZD4320] + Cc1cc2ncnn2cc1Nc1ncc2c(n1)n(C1CCOCC1)c(=O)n2C [AZD7648] (first compound max 1 µM, 7x7, partner max 10 µM) | -0.0649 | -0.014 | -0.0205 | -0.0213 | -0.0343 | 0.474 | 0.405 | 0.193 | 0.186 | 0.216 | 0.494 | 0.108 | 0.111 | 0.444 | 0.809 | 0.178 | 0.178 | 0.851 | 0.221 | 0.735 |
| CN(CCO)CC[C@H](CSc1ccccc1)Nc1ccc(S(=O)(=O)NC(=O)c2ccc(N3CCC([C@@H](O)c4ccccc4-c4ccc(Cl)cc4)CC3)cc2)cc1S(=O)(=O)C(F)(F)F [AZD4320] + Cn1cnc2c(F)c(Nc3ccc(Br)cc3Cl)c(C(=O)NOCCO)cc21 [Selumetinib] (first compound max 1 µM, 7x7, partner max 3 µM) | -0.0973 | -0.0867 | -0.0317 | -0.0231 | 0.0476 | 0.496 | 0.57 | 0.544 | 0.564 | 0.418 | 0.753 | 0.237 | 0.386 | 0.402 | 0.951 | 0.61 | 0.327 | 0.892 | 0.307 | 0.753 |
| CN(CCO)CC[C@H](CSc1ccccc1)Nc1ccc(S(=O)(=O)NC(=O)c2ccc(N3CCC([C@@H](O)c4ccccc4-c4ccc(Cl)cc4)CC3)cc2)cc1S(=O)(=O)C(F)(F)F [AZD4320] + Nc1ccn([C@@H]2O[C@H](CO)[C@@H](O)C2(F)F)c(=O)n1 [Gemcitabine] (first compound max 1 µM, 7x7, partner max 0.3 µM) | -0.0203 | 0.0032 | -0.0365 | -0.0365 | 0.0251 | 0.896 | 0.311 | 0.927 | 0.396 | 0.953 | 0.492 | 0.363 | 0.202 | 0.301 | 0.955 | 0.771 | 0.199 | 0.98 | 0.812 | 0.702 |
| Cc1cc2ncnn2cc1Nc1ncc2c(n1)n(C1CCOCC1)c(=O)n2C [AZD7648] + C=CCn1c(=O)c2cnc(Nc3ccc(N4CCN(C)CC4)cc3)nc2n1-c1cccc(C(C)(C)O)n1 [AZD1775] (first compound max 10 µM, partner max 1 µM) | -0.0504 | 0.0668 | 0.0239 | -0.0348 | 0.0072 | 0.89 | 0.555 | 0.329 | 0.524 | 0.755 | 0.692 | 0.392 | 0.638 | 0.63 | 0.532 | 0.558 | 0.679 | 0.458 | 0.927 | 0.615 |
| Cc1cc2ncnn2cc1Nc1ncc2c(n1)n(C1CCOCC1)c(=O)n2C [AZD7648] + CCN(CCO)CCCOc1ccc2c(Nc3cc(CC(=O)Nc4cccc(F)c4)[nH]n3)ncnc2c1 [AZD2811] (first compound max 10 µM, 7x7, partner max 1 µM) | -0.0195 | 0.0024 | 0.0013 | 0.013 | 0.0493 | 0.351 | 0.422 | 0.506 | 0.326 | 0.469 | 0.37 | 0.473 | 0.343 | 0.42 | 0.303 | 0.516 | 0.361 | 0.45 | 0.326 | 0.536 |
| Cc1cc2ncnn2cc1Nc1ncc2c(n1)n(C1CCOCC1)c(=O)n2C [AZD7648] + CN(C)CCCOc1ccc(-c2ccc3ncc4c(c3c2)n(C2CCOCC2)c(=O)n4C)cn1 [AZD0156] (first compound max 10 µM, 7x7, partner max 1 µM) | -0.0382 | 0.013 | -0.0144 | 0.0101 | 0.0477 | 0.671 | 0.525 | 0.39 | 0.349 | 0.431 | 0.334 | 0.25 | 0.252 | 0.442 | 0.349 | 0.401 | 0.254 | 0.364 | 0.237 | 0.403 |
